Data as given in US6656943B2, “1-phenyl-4-benzlpiperazines: dopamine receptor subtype specific ligands” (Neurogen Corporation, priority 1997, dated 2003).
Structures can show the parent of a compound that is named as a salt.

What was measured:
D4 receptors = target: T1, D4 receptors (Homo sapiens, UniProt P21917); experiment: D4 receptor binding assay (3H-YM 09151-2 displacement)
T1 construct: expressed in transfected cells; host or cells: COS cells
T1 sequence (P21917 1-419): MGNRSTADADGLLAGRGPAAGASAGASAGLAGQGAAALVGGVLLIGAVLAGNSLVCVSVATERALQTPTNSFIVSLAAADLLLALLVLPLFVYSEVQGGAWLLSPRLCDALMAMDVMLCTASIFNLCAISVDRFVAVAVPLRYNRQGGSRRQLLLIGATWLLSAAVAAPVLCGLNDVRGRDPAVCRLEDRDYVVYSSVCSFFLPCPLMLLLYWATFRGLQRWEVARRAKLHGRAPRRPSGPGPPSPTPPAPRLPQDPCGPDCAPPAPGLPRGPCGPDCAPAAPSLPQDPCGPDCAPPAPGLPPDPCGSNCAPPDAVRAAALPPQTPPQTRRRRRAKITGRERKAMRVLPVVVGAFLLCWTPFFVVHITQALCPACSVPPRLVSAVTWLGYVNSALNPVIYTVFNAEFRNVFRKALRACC
Procedure: (§1) Pellets of COS cells containing recombinantly produced D2 or D4 receptors from human are used for the assays. The sample is homogenized in 100 volumes (w/vol) of 0.05 M Tris HCl buffer at 4° C. and pH 7.4. The sample is then centrifuged at 30,000×g and resuspended and rehomogenized. The sample is then centrifuged as described above and the final tissue sample is frozen until use. The tissue is resuspended 1:20 (wt/vol) in 0.05 M Tris HCl buffer containing 100 mM NaCl.
(§2) Incubations are carried out at […]. and contain 0.4 ml of tissue sample, 0.5 nM 3H-YM 09151-2 and the compound of interest in a total incubation mixture of 1.0 ml. Nonspecific binding is defined as that binding found in the presence of 1 mM spiperone; without further additions, nonspecific binding is less than 20% of total binding. Representative binding characteristics for compounds of the invention for the D2 and D4 receptor subtypes are shown in Table 2 for cloned human dopamine receptors. Typically, the compounds of the invention have similar binding profiles.

D2 receptors = target: T2, D2 receptors (Homo sapiens, UniProt P14416); experiment: D2 receptor binding assay (3H-YM 09151-2 displacement)
T2 construct: expressed in transfected cells; host or cells: COS cells
T2 sequence (P14416 whole entry): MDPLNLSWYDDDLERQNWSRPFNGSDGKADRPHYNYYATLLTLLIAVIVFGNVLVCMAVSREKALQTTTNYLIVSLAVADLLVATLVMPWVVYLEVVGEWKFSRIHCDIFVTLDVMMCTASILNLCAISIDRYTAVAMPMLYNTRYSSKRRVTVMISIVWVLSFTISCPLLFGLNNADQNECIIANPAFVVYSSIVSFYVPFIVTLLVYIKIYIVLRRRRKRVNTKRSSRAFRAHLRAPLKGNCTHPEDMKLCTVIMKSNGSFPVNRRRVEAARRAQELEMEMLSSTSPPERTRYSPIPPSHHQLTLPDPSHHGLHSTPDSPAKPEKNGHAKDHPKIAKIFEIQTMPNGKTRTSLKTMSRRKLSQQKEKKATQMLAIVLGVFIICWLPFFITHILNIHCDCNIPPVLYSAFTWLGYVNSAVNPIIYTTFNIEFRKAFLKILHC
Procedure: as §1, §2

Question: With `Clc1ccc(CN2CCN(c3ccccc3Cl)CC2)cc1.O=C(O)C(=O)O.O=C(O)C(=O)O` as the compound, how does the melting point read?
Answer: 203 to 204 °C

Question: For `Cc1ccc(N2CCN(Cc3ccc(Cl)cc3)CC2)cc1.O=C(O)C(=O)O.O=C(O)C(=O)O`, which melting point is on record?
Answer: 204 to 206 °C

Question: With `Cc1ccc(CN2CCN(c3cccc(Cl)c3)CC2)cc1.O=C(O)C(=O)O.O=C(O)C(=O)O` as the compound, how does the melting point read?
Answer: 199 to 200 °C

Question: For `Br.Br.CCOc1ccccc1N1CCN(Cc2ccc(Cl)cc2)CC1`, which melting point is on record?
Answer: 215 to 217 °C

Question: What does the source list for `COc1ccc(N2CCN(Cc3ccc(Cl)cc3)CC2)cc1` [Compound 3, 1-(4-methoxyphenyl)-4-(4-chlorobenzyl)piperazine dioxalate]?
Answer: Ki (D4 receptors): 0.005 µM; Ki (D2 receptors): > 1 µM

Question: For `COc1ccc(N2CCN(Cc3ccc(Cl)cc3)CC2)cc1` (as salt: oxalate) [Compound 3, 1-(4-methoxyphenyl)-4-(4-chlorobenzyl)piperazine dioxalate], which melting point is on record?
Answer: 211 to 212 °C

Question: For `Cc1ccccc1N1CCN(Cc2ccc(Cl)cc2)CC1.O=C(O)C(=O)O.O=C(O)C(=O)O`, which melting point is on record?
Answer: 205 to 206 °C

Question: With `COc1ccccc1N1CCN(Cc2ccc(Cl)cc2)CC1.O=C(O)C(=O)O.O=C(O)C(=O)O` as the compound, how does the melting point read?
Answer: 217 to 220 °C

Question: Which Ki (D4 receptors) does the source give for `Cc1ccc(CN2CCN(c3ccc(Cl)cc3)CC2)cc1` [Compound 4, 1-(4-chlorophenyl)-4-(4-methylbenzyl)piperazine dihydrobromide] here?
Answer: 0.015 µM

Question: What about the Ki (D2 receptors) of the same compound?
Answer: > 0.3 µM

Question: Which melting point does the source give for `Br.Br.Clc1ccc(CN2CCN(c3cccc(Cl)c3)CC2)cc1` here?
Answer: 238 to 240 °C

Question: Which melting point does the source give for `Cc1cccc(N2CCN(Cc3ccc(Cl)cc3)CC2)c1.O=C(O)C(=O)O.O=C(O)C(=O)O` here?
Answer: 233 to 235 °C

Question: With `Clc1ccc(CN2CCN(c3ccccc3)CC2)cc1.O=C(O)C(=O)O.O=C(O)C(=O)O` as the compound, how does the melting point read?
Answer: 228 to 231 °C

Question: With `Cc1ccc(N2CCN(Cc3ccc(Cl)cc3)CC2)cc1C` (as salt: hydrochloride) [Compound 2, 1-(3,4-dimethylphenyl)-4-(4-chlorobenzyl)piperazine dihydrochloride] as the compound, how does the melting point read?
Answer: 225 to 228 °C

Question: For `Clc1ccc(CN2CCN(c3ccc(Cl)c(Cl)c3)CC2)cc1`, which melting point is on record?
Answer: 82 to 83 °C

Question: Which melting point does the source give for `CCOc1ccc(N2CCN(Cc3ccc(Cl)cc3)CC2)cc1.Cl.Cl` here?
Answer: 235 to 237 °C

Question: Which Ki (D4 receptors) does the source give for `Clc1ccc(CN2CCN(c3ccc(Cl)cc3)CC2)cc1` [Compound 1, 1-(4-Chlorophenyl)-4-(4-chlorobenlzyl)piperazine Dihydrochloride] here?
Answer: 0.005 µM

Question: And the Ki (D2 receptors)?
Answer: > 1 µM

Question: For `Cc1ccc(N2CCN(Cc3ccc(Cl)cc3)CC2)cc1C` [Compound 2, 1-(3,4-dimethylphenyl)-4-(4-chlorobenzyl)piperazine dihydrochloride], which Ki (D4 receptors) is on record?
Answer: 0.016 µM

Question: And the Ki (D2 receptors)?
Answer: > 0.6 µM
